According to publication PMC3480206 (Future microbiology, 2012):
Values after ≈ are worked out from the molar mass of the structure shown.

Legend:
EMB-resistant Mtb = settings: cited from earlier work
[1] = test system: Mycobacterium tuberculosis; test: Alamar MIC; format: cell-based; settings: TAACF
[2] = test system: Mycobacterium tuberculosis XDR strains; test: microbe, parasite or virus in culture; format: cell-based

CC[C@@H](CO)NCCN[C@@H](CC)CO [EMB, ethambutol]
MIC on EMB-resistant Mtb (EMB-resistant Mtb): 184 µg/mL (≈ 901 µM)

CC(C)=CCC/C(C)=C/CNCCNC1C2CC3CC(C2)CC1C3 (centres unmarked) [SQ109, N-geranyl-N′-(2-adamantyl)ethane-1,2-diamine]
MIC ([1]; ATCC35822, INH-resistant, ATCC 35822, Alamar): 0.78 µg/mL (≈ 2.36 µM) | MIC ([1]; ATCC35838, RIF-resistant, ATCC 35838, Alamar): ≤ 0.39 µg/mL | MIC ([1]; CIP-resistant, Alamar): ≤ 0.39 µg/mL | MIC ([1]; EMB-resistant, Alamar): 0.78 µg/mL (≈ 2.36 µM) | MIC ([1]; KAN-resistant, Alamar): 0.78 µg/mL (≈ 2.36 µM) | MIC ([2]; Mycobacterium tuberculosis): 0.2 µg/mL (≈ 0.605 µM) | MIC ([2]; XDR, also EMB-resistant, strain 587W1, Microbroth): 0.20 µg/mL (≈ 0.605 µM)
